Measured values published in paper PMC10458055, “Monocarboxylate Transporter 13 (MCT13/SLC16A13) Functions as a Novel Plasma Membrane Oligopeptide Transporter” (Nutrients, 2023).
Blank lines part the entries; values can stand above or below the molecule they belong to.

What was measured:
[1] = target: T1, MCT13 (SLC16A13), untagged, co-expressed with CD147 (Homo sapiens, UniProt Q7RTY0); assay: inhibition of cephradine uptake in transfected HEK293T cells, LC-MS/MS; type: cell-based; details: HEK-293T; read-out: % inhibition at 10 mM
T1 construct: untagged full-length MCT13, transiently co-transfected with CD147 in HEK293T cells; with Basigin
T1 sequence (Q7RTY0 1-426): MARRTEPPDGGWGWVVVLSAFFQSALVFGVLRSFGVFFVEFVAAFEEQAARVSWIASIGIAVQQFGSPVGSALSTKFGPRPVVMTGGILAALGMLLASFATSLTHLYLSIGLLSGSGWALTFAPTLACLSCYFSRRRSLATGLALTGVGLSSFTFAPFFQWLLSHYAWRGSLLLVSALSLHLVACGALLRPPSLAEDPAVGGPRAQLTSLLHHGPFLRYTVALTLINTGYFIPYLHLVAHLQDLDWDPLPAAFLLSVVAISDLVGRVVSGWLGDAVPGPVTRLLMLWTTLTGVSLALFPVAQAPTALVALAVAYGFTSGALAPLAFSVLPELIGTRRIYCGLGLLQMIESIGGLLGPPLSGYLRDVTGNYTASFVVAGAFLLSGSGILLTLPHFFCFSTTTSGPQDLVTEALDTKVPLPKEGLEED
T1 sequence (P35613 22-385 partner): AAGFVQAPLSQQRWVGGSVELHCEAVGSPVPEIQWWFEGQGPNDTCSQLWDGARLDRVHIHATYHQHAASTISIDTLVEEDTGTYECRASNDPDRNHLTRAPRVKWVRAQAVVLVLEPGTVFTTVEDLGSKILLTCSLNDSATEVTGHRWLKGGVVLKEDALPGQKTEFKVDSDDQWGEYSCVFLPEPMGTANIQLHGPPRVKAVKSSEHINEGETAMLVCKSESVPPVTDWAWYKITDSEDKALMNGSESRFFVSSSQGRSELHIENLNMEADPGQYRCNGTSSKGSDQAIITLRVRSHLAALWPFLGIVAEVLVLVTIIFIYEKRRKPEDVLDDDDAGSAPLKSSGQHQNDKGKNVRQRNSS

[2] = target: T1, MCT13 (SLC16A13), untagged, co-expressed with CD147; assay: as above; type: cell-based; details: 1 mM cephradine, KCl buffer, 5 min, mock subtracted
[3] = target: T1, MCT13 (SLC16A13), untagged, co-expressed with CD147; assay: as above; type: cell-based; details: 1 mM cephradine, KCl buffer with 1% DMSO, 5 min, mock subtracted
[4] = substrate: CC1=C(C(=O)O)N2C(=O)[C@@H](NC(=O)[C@H](N)C3=CCC=CC3)[C@H]2SC1; assay: uptake in transfected HEK293T cells, LC-MS/MS; type: cell-based, Homo sapiens

- inhibition at 10000 µM [1]: 43%
Molecule: Cc1nnc(SCC2=C(C(=O)O)N3C(=O)[C@@H](NC(=O)Cn4cnnn4)[C@H]3SC2)s1 [Cephazolin]

Molecule: CCCN(CCC)S(=O)(=O)c1ccc(C(=O)O)cc1 [Probenecid]
- % of control at 10 mM [2]: Probenecid and rifampicin, which are typical inhibitors of organic anion transporters

Molecule: CO[C@H]1/C=C/O[C@@]2(C)Oc3c(C)c(O)c4c(O)c(c(/C=N/N5CCN(C)CC5)c(O)c4c3C2=O)NC(=O)/C(C)=C\C=C\[C@H](C)[C@H](O)[C@@H](C)[C@@H](O)[C@@H](C)[C@H](OC(C)=O)[C@@H]1C [rifampicin]
- % of control at 50 uM [3]: Probenecid and rifampicin, which are typical inhibitors of organic anion transporters

- inhibition at 10000 µM [1]: 30%
Molecule: N[C@@H](CCC(=O)N[C@@H](CS)C(=O)NCC(=O)O)C(=O)O [glutathione]

B1: MCT13 (SLC16A13), untagged, co-expressed with CD147 (Homo sapiens) (protein)
chain: T1 sequence (Q7RTY0 1-426)
notes: untagged full-length MCT13, transiently co-transfected with CD147 in HEK293T cells; with Basigin
- Km ([4]; KCl buffer, 0.1-30 mM cephradine, co-expressed CD147): 2.83 ± 0.63 mM

B2: EGFP-tagged MCT13 (with CD147) (Homo sapiens) (protein)
chain: T1 sequence (Q7RTY0 1-426)
notes: EGFP-tagged (pEGFP-C1) full-length MCT13, co-transfected with CD147 in HEK293T cells; with Basigin
- Km ([4]; EGFP-tagged MCT13): 3.95 ± 0.53 mM
